Laboratory results as given in patent US11918582B2 (RAPT Therapeutics, Inc., priority 2021, dated 2024).
pIC50: −log10 of the molar value. Structures can show the parent of a compound that is named as a salt.

Biological target: T1, human HPK1 (MAP4K1) (Homo sapiens, UniProt Q92918)
T1 construct: Recombinant human HPK1 kinase domain was obtained from ThermoFisher (Cat. #PV6357) and SignalChem (Cat. #M23-11G); purchased ThermoFisher; SignalChem PV6357; M23-11G
T1 sequence (Q92918 17-274 limits assumed): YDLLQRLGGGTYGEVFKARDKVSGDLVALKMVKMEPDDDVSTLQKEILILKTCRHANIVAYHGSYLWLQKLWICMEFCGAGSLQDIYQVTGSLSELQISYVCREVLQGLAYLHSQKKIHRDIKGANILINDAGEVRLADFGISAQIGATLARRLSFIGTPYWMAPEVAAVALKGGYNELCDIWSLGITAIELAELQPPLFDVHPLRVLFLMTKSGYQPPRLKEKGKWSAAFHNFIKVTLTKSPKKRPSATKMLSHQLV
Test: Biochemical assay for activity against HPK1 (ADP-Glo, MBP substrate)
Conditions: recombinant human HPK1 kinase domain, 1 nM enzyme, ADP-Glo luminescence
Outline: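 IC50s come from ADP-Glo luminescence after a 2 h room-temperature reaction phosphorylating MBP in the presence of ATP. Compound was first preincubated 15 min with 1 nM HPK1 kinase domain, human recombinant. Buffer: 50 mM HEPES pH 7.5, 150 mM NaCl, 3 mM TCEP, 10 mM MgCl2, 0.005% Tween-20, 0.01% BSA.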

## COc1cc2c(cc1Nc1ncc3cnn([C@H]4CC[C@H](NS(C)(=O)=O)CC4)c3n1)CN(C)CC2 [Example 79, trans-N-[4-[6-[(6-methoxy-2-methyl-3,4-dihydro-1H-isoquinolin-7-yl)amino]pyrazolo[3,4-d]pyrimidin-1-yl]cyclohexyl]methanesulfonamide]
  pIC50: > 7.00

## COC(=O)N[C@H]1CC[C@H](n2ncc3cnc(Nc4cc5c(cc4OC)CCN(C)C5)nc32)CC1 [Example 80, trans-methyl N-[4-[6-[(6-methoxy-2-methyl-3,4-dihydro-1H-isoquinolin-7-yl)amino]pyrazolo[3,4-d]pyrimidin-1-yl]cyclohexyl]carbamate]
  pIC50: > 7.00

## COc1cc2c(cc1Nc1ncc3cnn(C4CC5(CCN(C(C)=O)CC5)C4)c3n1)CN(C)CC2 [Example 81, 1-(2-(6-((6-methoxy-2-methyl-1,2,3,4-tetrahydroisoquinolin-7-yl)amino)-1H-pyrazolo[3,4-d]pyrimidin-1-yl)-7-azaspiro[3.5]nonan-7-yl)ethan-1-one]
  pIC50: > 7.00

## COc1cc2c(cc1Nc1ncc3cnn(C4CC5(CCN(S(C)(=O)=O)CC5)C4)c3n1)CN(C)CC2 [Example 82, 6-methoxy-2-methyl-N-[1-(7-methylsulfonyl-7-azaspiro[3.5]nonan-2-yl)pyrazolo[3,4-d]pyrimidin-6-yl]-3,4-dihydro-1H-isoquinolin-7-amine]
  pIC50: > 7.00

## COc1cc2c(cc1Nc1ncc3cnn(CC[C@@H](C)O)c3n1)CN(C)CC2 [Example 83, (2R)-4-[6-[(6-methoxy-2-methyl-3,4-dihydro-1H-isoquinolin-7-yl)amino]pyrazolo[3,4-d]pyrimidin-1-yl]butan-2-ol]
  pIC50: > 7.00

## COc1cc2c(cc1Nc1ncc3cnn(CC[C@H](C)O)c3n1)CN(C)CC2 [Example 84, (S)-4-(6-((6-methoxy-2-methyl-1,2,3,4-tetrahydroisoquinolin-7-yl)amino)-1H-pyrazolo[3,4-d]pyrimidin-1-yl)butan-2-ol]
  pIC50: > 7.00

## COc1cc2c(cc1Nc1ncc3cnn(CCC(C)(C)O)c3n1)CN(C)CC2 [Example 85, 4-[6-[(6-methoxy-2-methyl-3,4-dihydro-1H-isoquinolin-7-yl)amino]pyrazolo[3,4-d]pyrimidin-1-yl]-2-methyl-butan-2-ol]
  pIC50: > 7.00

## COc1cc2c(cc1Nc1ncc3cnn(CCC(N)=O)c3n1)CN(C)CC2 [Example 86, 3-[6-[(6-methoxy-2-methyl-3,4-dihydro-1H-isoquinolin-7-yl)amino]pyrazolo[3,4-d]pyrimidin-1-yl]210ropenamide]
  pIC50: > 7.00

## COc1cc2c(cc1Nc1ncc3cnn(CCNC(C)=O)c3n1)CN(C)CC2 [Example 87, N-[2-[6-[(6-methoxy-2-methyl-3,4-dihydro-1H-isoquinolin-7-yl)amino]pyrazolo[3,4-d]pyrimidin-1-yl]ethyl]acetamide]
  pIC50: > 7.00

## COc1cc2c(cc1Nc1ncc3cnn(CCNS(C)(=O)=O)c3n1)CN(C)CC2 [Example 88, N-[2-[6-[(6-methoxy-2-methyl-3,4-dihydro-1H-isoquinolin-7-yl)amino]pyrazolo[3,4-d]pyrimidin-1-yl]ethyl]methanesulfonamide]
  pIC50: > 7.00

## COC(=O)NCCn1ncc2cnc(Nc3cc4c(cc3OC)CCN(C)C4)nc21 [Example 89, methyl N-[2-[6-[(6-methoxy-2-methyl-3,4-dihydro-1H-isoquinolin-7-yl)amino]pyrazolo[3,4-d]pyrimidin-1-yl]ethyl]carbamate]
  pIC50: 6.60 to 7.00

## COc1cc2c(cc1Nc1ncc3c(C)nn(CC[C@H](C)O)c3n1)CN(C)CC2 [Example 90, (2S)-4-[6-[(6-methoxy-2-methyl-3,4-dihydro-1H-isoquinolin-7-yl)amino]-3-methyl-pyrazolo[3,4-d]pyrimidin-1-yl]butan-2-ol]
  pIC50: > 7.00

## COc1cc2c(cc1Nc1ncc3cnn(CCN(C)C(C)=O)c3n1)CN(C)CC2 [Example 91, N-[2-[6-[(6-methoxy-2-methyl-3,4-dihydro-1H-isoquinolin-7-yl)amino]pyrazolo[3,4-d]pyrimidin-1-yl]ethyl]-N-methyl-acetamide]
  pIC50: 6.60 to 7.00

## COc1cc2c(cc1Nc1ncc3cnn(CCN(C)S(C)(=O)=O)c3n1)CN(C)CC2 [Example 92, N-[2-[6-[(6-methoxy-2-methyl-3,4-dihydro-1H-isoquinolin-7-yl)amino]pyrazolo[3,4-d]pyrimidin-1-yl]ethyl]-N-methyl-methanesulfonamide]
  pIC50: 6.60 to 7.00

## COc1cc2c(cc1Nc1ncc3cnn(C[C@H](C)NC(C)=O)c3n1)CN(C)CC2 [Example 93, N-[(1S)-2-[6-[(6-methoxy-2-methyl-3,4-dihydro-1H-isoquinolin-7-yl)amino]pyrazolo[3,4-d]pyrimidin-1-yl]-1-methyl-ethyl]acetamide]
  pIC50: > 7.00

## COc1cc2c(cc1Nc1ncc3cnn(C[C@H](C)NS(C)(=O)=O)c3n1)CN(C)CC2 [Example 94, N-[(1S)-2-[6-[(6-methoxy-2-methyl-3,4-dihydro-1H-isoquinolin-7-yl]amino]pyrazolo[3,4-d]pyrimidin-1-yl]-1-methyl-ethyl]methanesulfonamide]
  pIC50: 6.60 to 7.00

## COC(=O)N[C@@H](C)Cn1ncc2cnc(Nc3cc4c(cc3OC)CCN(C)C4)nc21 [Example 95, methyl N-[(1S)-2-[6-[(6-methoxy-2-methyl-3,4-dihydro-1H-isoquinolin-7-yl)amino]pyrazolo[3,4-d]pyrimidin-1-yl]-1-methyl-ethyl]carbamate]
  pIC50: > 7.00

## COc1cc2c(cc1Nc1ncc3cnn(CCCO)c3n1)CN(C)CC2 [Example 96, 3-[6-[(6-methoxy-2-methyl-3,4-dihydro-1H-isoquinolin-7-yl)amino]pyrazolo[3,4-d]pyrimidin-1-yl]propan-1-ol]
  pIC50: > 7.00

## COc1cc2c(cc1Nc1ncc3cnn(C[C@@H](C)NC(C)=O)c3n1)CN(C)CC2 [Example 97, N-[(1R)-2-[6-[(6-methoxy-2-methyl-3,4-dihydro-1H-isoquinolin-7-yl)amino]pyrazolo[3,4-d]pyrimidin-1-yl]-1-methyl-ethyl]acetamide]
  pIC50: 6.60 to 7.00

## COC(=O)N[C@H](C)Cn1ncc2cnc(Nc3cc4c(cc3OC)CCN(C)C4)nc21 [Example 98, methyl N-[(1R)-2-[6-[(6-methoxy-2-methyl-3,4-dihydro-1H-isoquinolin-7-yl)amino]pyrazolo[3,4-d]pyrimidin-1-yl]-1-methyl-ethyl]carbamate]
  pIC50: 6.60 to 7.00

## COc1cc2c(cc1Nc1ncc3cnn([C@H](C)CCO)c3n1)CN(C)CC2 [Example 99, (3R)-3-[6-[(6-methoxy-2-methyl-3,4-dihydro-1H-isoquinolin-7-yl)amino]pyrazolo[3,4-d]pyrimidin-1-yl]butan-1-ol]
  pIC50: > 7.00

## COc1cc2c(cc1Nc1ncc3cnn([C@@H](C)CCO)c3n1)CN(C)CC2 [Example 100]
  pIC50: > 7.00

## CC(C)n1ncc2cnc(Nc3ccc4c(c3)CN(C)CC4)nc21 [Example 101, N-(1-isopropyl-1H-pyrazolo[3,4-d]pyrimidin-6-yl)-2-methyl-1,2,3,4-tetrahydroisoquinolin-7-amine]
  pIC50: > 7.00

## CN1CCc2ccc(Nc3ncc4cnn(C5CCCCC5)c4n3)cc2C1 [Example 102, N-(1-cyclohexyl-1H-pyrazolo[3,4-d]pyrimidin-6-yl)-2-methyl-1,2,3,4-tetrahydroisoquinolin-7-amine]
  pIC50: > 7.00

## CN1CCc2ccc(Nc3ncc4cnn(C56CC7CC(CC(C7)C5)C6)c4n3)cc2C1 [Example 103, N-(1-((3s,5s,7s)-adamantan-1-yl)-1H-pyrazolo[3,4-d]pyrimidin-6-yl)-2-methyl-1,2,3,4-tetrahydroisoquinolin-7-amine]
  pIC50: > 7.00

## COc1cc2c(cc1Nc1ncc3cnn(C(C)C)c3n1)CN(C)CC2 [Example 104, N-(1-isopropylpyrazolo[3,4-d]pyrimidin-6-yl)-6-methoxy-2-methyl-3,4-dihydro-1H-isoquinolin-7-amine]
  pIC50: > 7.00

## COc1cc2c(cc1Nc1ncc3cnn(C4CCN(S(C)(=O)=O)CC4)c3n1)CN(C)CC2 [Example 105, 6-methoxy-2-methyl-N-(1-(1-(methylsulfonyl)piperidin-4-yl)-1H-pyrazolo[3,4-d]pyrimidin-6-yl)-1,2,3,4-tetrahydroisoquinolin-7-amine]
  pIC50: > 7.00

## COc1cc2c(cc1Nc1ncc3cnn(C4CCN(C(C)=O)CC4)c3n1)CN(C)CC2 [Example 106, 1-(4-(6-((6-methoxy-2-methyl-1,2,3,4-tetrahydroisoquinolin-7-yl)amino)-1H-pyrazolo[3,4-d]pyrimidin-1-yl)piperidin-1-yl)ethan-1-one trifluoroacetate]
  pIC50: > 7.00

## COc1cc2c(cc1Nc1ncc3cnn(C4CCN(C(=O)C(F)(F)F)CC4)c3n1)CN(C)CC2 [Example 107, 2,2,2-trifluoro-1-(4-(6-((6-methoxy-2-methyl-1,2,3,4-tetrahydroisoquinolin-7-yl)amino)-1H-pyrazolo[3,4-d]pyrimidin-1-yl)piperidin-1-yl)ethan-1-one trifluroacetate]
  pIC50: 6.60 to 7.00

## COc1cc2c(cc1Nc1ncc3cnn(C4CCCN(S(C)(=O)=O)C4)c3n1)CN(C)CC2 (stereo not shown) [Example 108, 6-methoxy-2-methyl-N-(1-(1-(methylsulfonyl)piperidin-3-yl)-1H-pyrazolo[3,4-d]pyrimidin-6-yl)-1,2,3,4-tetrahydroisoquinolin-7-amine]
  pIC50: > 7.00

## COc1cc2c(cc1Nc1ncc3cnn(C4CCCN(C(C)=O)C4)c3n1)CN(C)CC2 (stereo not shown) [Example 109, 1-(3-(6-((6-methoxy-2-methyl-1,2,3,4-tetrahydroisoquinolin-7-yl)amino)-1H-pyrazolo[3,4-d]pyrimidin-1-yl)piperidin-1-yl)ethan-1-one]
  pIC50: > 7.00
